Values after ≈ are worked out from the molar mass of the structure shown. Active and inactive are the calls of the source. No cut-off for these calls is given here.
Tests used:
Aurora kinase A = biological target: T1, Aurora kinase A (Homo sapiens, UniProt O14965); assay: Allosteric inhibition of AurkA (unknown origin)
T1 sequence (O14965 whole entry): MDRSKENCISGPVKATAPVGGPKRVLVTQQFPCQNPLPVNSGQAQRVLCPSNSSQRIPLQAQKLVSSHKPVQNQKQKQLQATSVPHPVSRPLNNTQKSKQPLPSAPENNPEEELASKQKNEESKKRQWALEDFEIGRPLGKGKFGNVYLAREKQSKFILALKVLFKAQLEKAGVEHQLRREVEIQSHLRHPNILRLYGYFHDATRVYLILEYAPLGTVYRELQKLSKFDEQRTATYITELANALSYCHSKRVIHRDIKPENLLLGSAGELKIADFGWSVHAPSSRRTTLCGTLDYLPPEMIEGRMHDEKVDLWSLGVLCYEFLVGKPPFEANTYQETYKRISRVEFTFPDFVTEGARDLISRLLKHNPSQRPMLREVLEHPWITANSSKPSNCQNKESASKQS

HeLa [1] = assay: Inhibition of DNA replication during G1 to S transition in nocodazole synchronized human HeLa cells assessed as reduction in Edu content in new synthesized DNA by measuring Edu positive cells at 1 uM measured after 8 hrs by Edu incorporation based flow cytometry analysis (reference value: 19.7%); type: functional, cell-based; set-up: scale not given: the % may be the effect or the level left
HeLa [2] = assay: Inhibition of DNA replication during G1 to S transition in nocodazole synchronized human HeLa cells assessed as reduction in Edu content in new synthesized DNA by measuring Edu positive cells at 1 uM measured after 9 hrs by Edu incorporation based flow cytometry analysis (reference value: 16.8%); type: functional, cell-based; set-up: scale not given: the % may be the effect or the level left
[3] = Aqueous solubility of compound at pH 7.4; type: physicochemical
[4] = Permeability of compound at 5 uM by PAMPA assay; type: ADME; conditions: read-out: permeability
HeLa [5] = assay: Inhibition of DNA replication during G1 to S transition in nocodazole synchronized human HeLa cells assessed as reduction in Edu content in new synthesized DNA by measuring Edu positive cells at 100 uM measured after 8 hrs by Edu incorporation based flow cytometry analysis (reference value: 19.7%); type: functional; set-up: scale not given: the % may be the effect or the level left
HeLa [6] = assay: Inhibition of DNA replication during G1 to S transition in nocodazole synchronized human HeLa cells assessed as reduction in Edu content in new synthesized DNA by measuring Edu positive cells at 100 uM measured after 9 hrs by Edu incorporation based flow cytometry analysis (reference value: 16.8%); type: functional; set-up: scale not given: the % may be the effect or the level left
HeLa [7] = assay: Antiproliferative activity against human HeLa cells assessed as inhibition of cell growth incubated for 72 hrs in absence of PHA-767491 by celltiter-glo assay; type: functional
HeLa [8] = assay: Induction of cell cycle arrest in human HeLa cells at 100 uM measured after 48 hrs by RNase/PI staining based flow cytometry analysis; type: functional
PANC-1 = assay: Induction of cell cycle arrest in human PANC-1 cells at 100 uM measured after 48 hrs by RNase/PI staining based flow cytometry analysis; type: functional
A549 = assay: Induction of cell cycle arrest in human A549 cells assessed as G1/S phase transition at 100 uM measured after 48 hrs by RNase/PI staining based flow cytometry analysis; type: functional
NCI-H358 = assay: Induction of cell cycle arrest in human NCI-H358 cells assessed as G1/S phase transition at 100 uM measured after 48 hrs by RNase/PI staining based flow cytometry analysis; type: functional
HT-29 [9] = assay: Induction of cell cycle arrest at G2/M phase in human HT-29 cells at 100 uM measured after 48 hrs by RNase/PI staining based flow cytometry analysis; type: functional
HCT-116 [10] = assay: Induction of cell cycle arrest at G2/M phase in human HCT-116 cells at 100 uM measured after 48 hrs by RNase/PI staining based flow cytometry analysis; type: functional
HT-29 [11] = assay: Downregulation of phospho-histone H3 level at Ser10 residue in human HT-29 cells at 20 uM measured at 48 hrs by Western blot analysis; type: functional, cell-based
HCT-116 [12] = assay: Downregulation of phospho-histone H3 level at Ser10 residue in human HCT-116 cells at 20 uM measured at 48 hrs by Western blot analysis; type: functional, cell-based
HT-29 [13] = assay: Downregulation of phospho-histone H3 level at Ser10 residue in human HT-29 cells at 20 uM measured at 12 to 24 hrs by Western blot analysis; type: functional, cell-based; conditions: time 12-24 hrs
HCT-116 [14] = assay: Downregulation of phospho-histone H3 level at Ser10 residue in human HCT-116 cells at 20 uM measured at 12 to 24 hrs by Western blot analysis; type: functional, cell-based; conditions: time 12-24 hrs
HeLa [15] = assay: cells; conditions: Homo sapiens, 72 h

CC(Oc1ccc2c(c1)c1ccnc3c4ccccc4c(=O)n2c13)C(=O)NCc1ccc2c(c1)OCO2 (stereo unspecified)
IC50 (Aurora kinase A): < 20 µM

Cc1cc(Nc2cc(N3CCN(C)CC3)nc(Sc3ccc(NC(=O)C4CC4)cc3)n2)n[nH]1
Activity (HeLa [1]): 21.7% | Activity (HeLa [2]): 22.1%

O=C(NCc1ccc2c(c1)OCO2)c1cccc(-c2ccncc2)c1
solubility [3]: 161 µM (≈ 53.5 µg/mL) | Papp at 5 µM [4]: 65.5 ×10⁻⁶ cm/s | Activity (HeLa [5]): 7% | Activity (HeLa [6]): 1.6% | GI50 (HeLa [7]): 71.7 µM | Activity (HeLa [8]): inactive | Activity (PANC-1): inactive | Activity (A549): Active | Activity (NCI-H358): Active | Activity (HT-29 [9]): Active | Activity (HCT-116 [10]): Active | Activity (HT-29 [11]): Active | Activity (HCT-116 [12]): Active | Activity (HT-29 [13]): inactive | Activity (HCT-116 [14]): inactive | GI50 (HeLa [15]): 14 µM

COc1ccc(CNC(=O)C(C)Oc2ccc3c(c2)c2ccnc4c5ccccc5c(=O)n3c24)cc1 (stereo unspecified)
IC50 (Aurora kinase A): < 20 µM

CC1=C(C(=O)Nc2ccc(F)cc2F)[C@H](c2cccnc2)C2=C(C[C@@H](c3ccccc3)CC2=O)N1
IC50 (Aurora kinase A): < 20 µM

— ChEMBL document CHEMBL5550098, “Discovery of N-benzylbenzamide-based allosteric inhibitors of Aurora kinase A” (Bioorg Med Chem, 2024)
